{"source": "patent US20240025886A1", "about": "“INHIBITORS OF IGF2BP1-RNA BINDING” (YISSUM RESEARCH DEVELOPMENT COMPANY OF THE HEBREW …, priority 2020, published 2024)", "key": {"[1]": {"target": "T1, Igf2bp1 binding to Kras 6 RNA (Homo sapiens, UniProt Q9NZI8)", "T1 construct": "Recombinant full-length Igf2bp1 protein; made in house; host or cells: E. coli BL21(DE3)", "T1 sequence (Q9NZI8 whole entry)": "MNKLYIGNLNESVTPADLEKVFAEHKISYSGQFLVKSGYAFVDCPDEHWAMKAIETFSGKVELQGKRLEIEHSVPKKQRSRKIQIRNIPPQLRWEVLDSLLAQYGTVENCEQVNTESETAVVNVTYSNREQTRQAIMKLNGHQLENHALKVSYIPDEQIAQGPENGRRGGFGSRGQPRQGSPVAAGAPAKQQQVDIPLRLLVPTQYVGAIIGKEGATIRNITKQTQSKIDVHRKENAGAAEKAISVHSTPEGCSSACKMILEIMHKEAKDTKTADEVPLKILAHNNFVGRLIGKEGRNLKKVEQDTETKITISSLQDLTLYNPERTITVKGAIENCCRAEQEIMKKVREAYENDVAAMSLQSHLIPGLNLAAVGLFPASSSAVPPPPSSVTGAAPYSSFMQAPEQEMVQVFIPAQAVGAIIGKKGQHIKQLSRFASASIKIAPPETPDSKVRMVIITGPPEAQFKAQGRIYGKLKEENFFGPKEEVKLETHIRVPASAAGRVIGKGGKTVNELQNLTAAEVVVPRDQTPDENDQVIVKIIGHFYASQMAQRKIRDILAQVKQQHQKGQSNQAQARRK", "assay": "Fluorescence polarization (FP) assay of Igf2bp1 binding to fluorescent Kras 6 RNA", "settings": "FP dose response; read-out: IC50 for inhibition of Igf2bp1 binding to Kras 6 RNA", "description": "For the small molecule screen, compounds were obtained from the collection maintained at the Grand Israel National Center for Personalized Medicine, consisting of molecules purchased from commercial vendors. Labelled RNA (10 nM) was incubated with recombinant Igf2bp1 protein (400 nM) in FAM-RNA buffer (10 mM Tris pH 8.0, 75 mM KCl, 0.5 mM EDTA, 1 mM DTT, 0.0188 U/μL RNAsin, 0.0005 μg/mL heparin, 0.0001 μg/μL tRNA, 0.01% Triton X-100, 3 mM MgCl2, 0.05% IGEPAL) at room temperature for 15 min. […] of this reaction mix was aliquoted with GNF WDII (USA) into wells of 1536 well plates, with a final concentration of […] compound or DMSO. The plates were spun down and read in a BMG Pherastar FS (Germany) plate reader plate reader, in FP mode with a 485/520/520 polarization filter, calibrated to 35 mP for free fluorescein with similar total intensity as experimental samples. […]\nTo determine the quality of the inventors screening assay, the Z′ factor for each plate was calculated with a Z′ factor greater than 0.5 indicating a robust assay suitable for high throughput screening. Compounds that altered the overall fluorescence intensity compared to controls were considered auto florescence and excluded from further analysis. […] Any small molecule that causes a change of more than three standard deviations from the mean is determined appropriate for further investigation."}, "cMyc mRNA": {"tested_on": "cMyc mRNA", "assay": "cMyc mRNA levels in different cell lines", "assay_type": "cell-based", "description": "Primers were calibrated for several Igf2bp1 RNA targets (Table 3): […]\nCells were grown for 12 hours in 12 well plates prior to incubation with the compound at different concentrations for an additional 12 or 24 hours. Total RNA was then extracted using EZ-RNA total RNA isolation kit (Biological Industries) and cDNA prepared from the RNA using the First Strand cDNA Synthesis kit (Quanta bio). Real time PCR was performed with Fast SYBR Green Master Mix (Thermo Fisher Scientific), and cDNA expression analyzed with the Bio-Rad CFX Manager 3.1."}, "G9a": {"target": "G9a (Homo sapiens, UniProt Q96KQ7)", "sequence (Q96KQ7 whole entry, species assumed)": "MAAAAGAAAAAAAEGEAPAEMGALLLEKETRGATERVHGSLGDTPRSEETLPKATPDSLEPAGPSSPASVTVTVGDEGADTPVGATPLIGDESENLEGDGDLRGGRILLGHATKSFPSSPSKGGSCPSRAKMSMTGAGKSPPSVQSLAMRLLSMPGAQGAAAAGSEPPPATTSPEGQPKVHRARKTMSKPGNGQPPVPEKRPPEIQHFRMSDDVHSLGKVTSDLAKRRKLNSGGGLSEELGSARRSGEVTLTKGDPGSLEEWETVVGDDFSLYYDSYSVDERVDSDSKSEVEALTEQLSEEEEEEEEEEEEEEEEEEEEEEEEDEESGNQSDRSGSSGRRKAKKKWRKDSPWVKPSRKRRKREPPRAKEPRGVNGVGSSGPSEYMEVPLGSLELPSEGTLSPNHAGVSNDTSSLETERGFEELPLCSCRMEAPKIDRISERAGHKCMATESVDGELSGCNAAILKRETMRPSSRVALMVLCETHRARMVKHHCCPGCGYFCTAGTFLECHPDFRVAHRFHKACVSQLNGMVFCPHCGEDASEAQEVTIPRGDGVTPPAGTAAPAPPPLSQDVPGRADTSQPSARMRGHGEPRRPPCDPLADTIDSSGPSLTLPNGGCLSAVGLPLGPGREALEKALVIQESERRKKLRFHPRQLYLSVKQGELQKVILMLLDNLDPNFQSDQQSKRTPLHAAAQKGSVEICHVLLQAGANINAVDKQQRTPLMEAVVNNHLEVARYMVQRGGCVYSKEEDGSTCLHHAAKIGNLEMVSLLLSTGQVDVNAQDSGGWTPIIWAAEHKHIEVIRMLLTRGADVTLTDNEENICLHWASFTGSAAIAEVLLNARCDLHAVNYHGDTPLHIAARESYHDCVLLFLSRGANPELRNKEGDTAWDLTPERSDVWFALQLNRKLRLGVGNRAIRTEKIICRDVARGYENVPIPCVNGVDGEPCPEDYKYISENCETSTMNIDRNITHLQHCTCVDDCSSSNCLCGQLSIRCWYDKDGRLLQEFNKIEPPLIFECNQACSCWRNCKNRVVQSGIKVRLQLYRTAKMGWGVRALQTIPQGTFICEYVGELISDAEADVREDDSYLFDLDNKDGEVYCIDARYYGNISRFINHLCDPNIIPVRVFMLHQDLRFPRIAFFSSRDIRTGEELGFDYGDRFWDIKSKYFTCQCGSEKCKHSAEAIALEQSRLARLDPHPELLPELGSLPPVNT", "assay": "G9a fluorescence polarization enzymatic activity assay", "assay_type": "biochemical", "settings": "increasing concentrations", "description": "For the small molecule screen, compounds were obtained from the collection maintained at the Grand Israel National Center for Personalized Medicine, consisting of molecules purchased from commercial vendors. Labelled RNA (10 nM) was incubated with recombinant Igf2bp1 protein (400 nM) in FAM-RNA buffer (10 mM Tris pH 8.0, 75 mM KCl, 0.5 mM EDTA, 1 mM DTT, 0.0188 U/μL RNAsin, 0.0005 μg/mL heparin, 0.0001 μg/μL tRNA, 0.01% Triton X-100, 3 mM MgCl2, 0.05% IGEPAL) at room temperature for 15 min. […] of this reaction mix was aliquoted with GNF WDII (USA) into wells of 1536 well plates, with a final concentration of […] compound or DMSO. The plates were spun down and read in a BMG Pherastar FS (Germany) plate reader plate reader, in FP mode with a 485/520/520 polarization filter, calibrated to 35 mP for free fluorescein with similar total intensity as experimental samples. The G9a FP assay was based on using an S-adenosylhomocysteine (SAH)-FITC probe and antibody to SAH to produce a high FP signal when the antibody binds to SAH-FITC. Unlabeled SAH produced by incubation of G9a enzyme with S-adenosylmethionine (SAM) and peptide substrate competes for the antibody and results in a low FP signal. 100% activity means that G9a is fully active and therefore a low FP signal is observed (SAH is produced)."}, "Igf2bp1 RRM12 di-domain": {"target": "T2, Igf2bp1 RRM12 di-domain (Homo sapiens, UniProt Q9NZI8)", "T2 construct": "RRM12 (M1-P188); 6xHis (N, cleaved yes); made in house; host or cells: E. coli BL21(DE3)", "T2 sequence (Q9NZI8 1-188)": "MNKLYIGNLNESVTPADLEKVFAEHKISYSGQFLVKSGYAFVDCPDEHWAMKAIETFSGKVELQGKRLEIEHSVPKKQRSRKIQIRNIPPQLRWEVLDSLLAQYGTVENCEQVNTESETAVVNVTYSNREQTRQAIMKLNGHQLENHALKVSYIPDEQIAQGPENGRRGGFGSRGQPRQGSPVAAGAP", "assay": "MST binding to Igf2bp1 di-domain RRM12", "description": "(§1) Recombinant full-length Igf2bp1 protein was labelled with RED-tris-NTA dye using a Monolith NT His-Tag Labelling Kit (NanoTemper) while RRM12, KH12 and KH34 di-domain peptides were labelled using the Protein Labeling Kit RED NHS 2nd generation (NanoTemper). Labelled proteins were spun at 15,000 g for 5 min to eliminate aggregates. All samples were 2× labelled protein mix of Igf2bp1 (200 nM) in PBST and were combined (1:1) with serial dilutions of compound or Kras6 RNA in binding buffer (10 mMTris pH=7.5, 100 mM NaCl, 0.1 mM EDTA, 0.06% IPEGAL, 0.02 μg/μL tRNA, 2 mM DTT, 0.1 μg/μL heparin) in final volume of 20 μL, room temperature for 15 min. Samples were then loaded into standard capillaries (NanoTemper) and read in the Monolith NT.115 scanner (NanoTemper) using the red filter with reading conditions of 95% LED power and 40% MST power, 5 sec fluorescence before, 30 sec MST on, 5 sec fluorescence after and 25 sec delay between samples. Results were analyzed using the MO Control software (NanoTemper) for curve fitting to KD."}, "ES2 cells [2]": {"tested_on": "ES2 cells", "assay": "Cell proliferation assay (Incucyte), ES2 cells", "assay_type": "cell-based, human", "set-up": "dose or concentration left out as unconfirmed", "settings": "ES2, up", "description": "ES2, H1299 and HEK293 cells were seeded in a 96 well plate (5×10^3 cells per well) for 24 hours before adding the compound at increasing concentrations. After an additional 24 hours, the plate was incubated in an IncuCyte® S3 Live-Cell Analysis System (Essen BioScience). The wells were filmed for 72 hours, and then analyzed for proliferation rate Using IncuCyte® S3 Live-Cell Analysis System (Essen BioScience)"}, "ES2 cells [3]": {"tested_on": "ES2 cells", "assay": "Wound healing (cell migration) assay, ES2 cells", "assay_type": "cell-based, human", "description": "Cells were seeded in 96 IncuCyte® ImageLock plates (20×10^3 cells per well) for 24 hours, to a near confluency of 95%, before the addition of increasing concentrations of compound. After a further 24 hours, wells were scratched using the IncuCyte® 96-well WoundMaker Tool, and the cells cultured for an additional 48 hours using the IncuCyte® S3 Live-Cell Analysis System (Essen BioScience). The plate was imaged at increments of 120 minutes for a period of 48 hours, and then analyzed for relative wound healing."}, "[4]": {"tested_on": "Kras protein in H1299 cells", "assay": "Western blot of Kras protein in H1299 cells", "assay_type": "cell-based, human", "settings": "H1299, 10 and 20 μM 7773, 48 hours", "description": "Western blots were performed as previously described. For fluorescent westerns, cell lysates were prepared with phosphatase inhibitors (β-Glycerophosphate and Sodium orthovanadate) and a protease inhibitor (cOmplete™, Mini Protease Inhibitor Cocktail, Roche 04693124001), membranes were read using a Li-Core Odyssey laser scanner, and results analyzed using Image Studio Lite software.\nThe following primary antibodies were used: mouse anti-total ERK (p44/42 MAPK (Erk1/2) L34F12 Cell Signaling 4696s), mouse anti-Kras (CPTC-KRAS4B-2, DSHB) rabbit anti-dpERK, (p44/42 MAPK, Cell Signaling 4370), rabbit anti-alpha/beta tubulin (Cell Signaling 2148), goat anti-rabbit IgG-HRP (Jackson), goat anti-mouse IgG-HRP (Jackson). Secondary antibodies for fluorescent westerns: donkey anti-mouse 800 (Rockland 610-732-124), goat anti-rabbit 680 (Molecular Probes A21076)."}, "Igf2bp1": {"target": "T3, Igf2bp1 (Homo sapiens, UniProt Q9NZI8)", "T3 construct": "Recombinant full-length Igf2bp1 protein; made in house; host or cells: E. coli BL21(DE3)", "T3 sequence (Q9NZI8 whole entry)": "as the sequence (Q9NZI8 whole entry) above", "assay": "Microscale thermophoresis (MST) binding to full-length Igf2bp1", "settings": "full-length protein, unit printed μM", "description": "as §1"}}, "note": "pIC50, pKd: −log10 of the molar value. Where “and” joins values, the source holds several entries; their conditions need not be identical. Identical values can stand only once. Entries after “also recorded” stand apart in the source; their conditions may differ."}
{"compound": "O=C(c1ccc(Cn2cnnn2)cc1)N1CCCC(Nc2ccc3c(c2)OCO3)C1", "note": "(stereo not drawn) [Compound 7773]", "values": [{"measurement": "pIC50", "setting": "[1]", "result": "~4.52 and 4.44 to 4.82"}, {"measurement": "Reduction of cMyc mRNA levels", "setting": "cMyc mRNA", "result": "50-60%"}, {"measurement": "Inhibition of G9a enzymatic activity", "setting": "G9a", "result": "almost no effect; also recorded: does not inhibit"}, {"measurement": "pKd", "setting": "Igf2bp1 RRM12 di-domain", "result": 5.82}, {"measurement": "Cell proliferation", "setting": "ES2 cells [2]", "result": "remarkably unaffected"}, {"measurement": "Inhibition of wound healing", "setting": "ES2 cells [3]; ES2, 5 mM 7773", "result": "discernible inhibition"}, {"measurement": "Inhibition of wound healing", "setting": "ES2 cells [3]; ES2, 20 mM 7773", "result": "strongly inhibited"}, {"measurement": "Kras protein expression", "setting": "[4]", "result": "dose-dependent reduction"}, {"measurement": "Kd", "setting": "Igf2bp1", "result": 17, "unit": "µM"}]}
